Counter-ions that a name gives are not always drawn.
Tests used:
[1] = test system: acute myocardial infarction in rats; test: Acute myocardial infarction in rats by coronary artery (LAD) ligature: myocardial infarction rate (MIR); type: in vivo, SD male rats; details: intragastric pre-administration 7 d (Y 4.5, G 115, F 84 mg/kg)
Excerpt: (§1) SD male rats, weighing 340˜360 g, were purchased from Beijing Weitonglihua Experimental Animal Co., Ltd, and certification No.: SCXK (Jing) 2007-0001.
(§2) Grouping: the rats were randomly divided into groups according to their body weight: S group (Sham operation group), M group (Model group), Y group (Positive control group, metoprolol tartrate, Lot No. 1201039), F group (CSMDP of the present invention) and G group (CSDP available in China, Lot No. 2011L16); 10 rats in each group.
On the 8th day, the rats were anesthetized intraperitoneally with 10% chloral hydrate (3 ml/kg) and fixed on a small wood plate in a supine position. Pins were inserted under the skin of the right forelimb and both hind limbs, and then the rats were connected with the MedLab-U/8c bio-signals collecting-processing system to record ECG of the rats. Hair on the front wall of the left chest was clipped. Oral tracheal cannula was performed and the animal respirator was connected at a respiratory frequency of 80 breaths/min, tidal volume 3 ml/100 g and I:E=1:1. Chest on the left front chest lateral side was incised to cut the 3′ rib and the pericardium was carefully lifted with forceps to tear apart. […] ECG was recorded continuously for 4 hours. […]

[2] = test system: heart rate in rats with myocardial infarction; test: Heart rate (ECG) in rats with myocardial infarction after ligation; type: in vivo, SD male rats; details: 7 d pre-administration
Excerpt: as §1, §2
On the 8th day, the rats were anesthetized intraperitoneally with 10% chloral hydrate (3 ml/kg) and fixed on a small wood plate in a supine position. Pins were inserted under the skin of the right forelimb and both hind limbs, and then the rats were connected with the MedLab-U/8c bio-signals collecting-processing system to record ECG of the rats. Hair on the front wall of the left chest was clipped. Oral tracheal cannula was performed and the animal respirator was connected at a respiratory frequency of 80 breaths/min, tidal volume 3 ml/100 g and I:E=1:1. Chest on the left front chest lateral side was incised to cut the 3′ rib and the pericardium was carefully lifted with forceps to tear apart. […] Medical suture (4-0) was used to transfix LAD and a small amount of myocardial tissue at a distance of about 1˜2 mm from the lower edge of the left atrial appendage and inside interventricular sulcus in the vicinity of the left main trunk of coronary vein. The rats with an elevated J point by 0.1 mV in ECG and pale LVAW (left ventricular anterior wall) indicated a successful modeling. Chest was closed layer by layer. The tracheal tube was removed until the voluntary respiration was recovered in the rats. ECG was recorded continuously for 4 hours.

Structure (SMILES): COCCc1ccc(OCC(O)CNC(C)C)cc1 (stereo not drawn) [Y group, metoprolol tartrate]
- Average wet weight of the infarction region ([1]; LAD ligation on 8th day, heart taken after 4 h ECG): 0.0233 ± 0.0038 g
- MIR (myocardial infarction rate = wet weight of the infarction region/wet weight of the whole heart x 100%) ([1]; LAD ligation, model group 5.07 ± 0.75): 2.65 ± 0.33 %
- heart rate ([2]; 0 s after ligation): 377 ± 48 beat/min
- heart rate ([2]; 5 s after ligation): 423 ± 39 beat/min
- heart rate ([2]; 10 s after ligation): 419 ± 41 beat/min
- heart rate ([2]; 5 min after ligation): 424 ± 29 beat/min
- heart rate ([2]; 10 min after ligation): 431 ± 17 beat/min
- heart rate ([2]; 30 min after ligation): 413 ± 34 beat/min
- heart rate ([2]; 1 h after ligation): 421 ± 47 beat/min
- heart rate ([2]; 2 h after ligation): 416 ± 33 beat/min
- heart rate ([2]; 3 h after ligation): 380 ± 66 beat/min
- heart rate ([2]; 4 h after ligation): 395 ± 52 beat/min
